Results from US3978211A, “Lipiarmycin and its preparation” (Gruppo Lepetit S.p.A., priority 1973, dated 1976).
Converted amounts (≈) assume the structure as drawn. Residues, ends and D or L forms follow the SMILES beside them.

How the values were obtained:
[1] = system: Staphylococcus aureus ATCC 6538 resistant to bacitracin; experiment: Minimum inhibitory concentration, resistant strain (Table II); type: cell-based; details: S. aureus ATCC 6538 resistant to bacitracin
Text: (§1) Lipiarmycin is also active against strains which are resistant to other antibiotics which are widely used in chemotherapeutic practice. As a representative example, in the following table the minimum inhibitory concentrations (M.I.C.), γ/ml., of lipiarmycin against Staphylococcus aureus strains resistant to several antibiotics are reported.

[2] = system: Staphylococcus aureus ATCC 6538 resistant to cephaloridine; experiment: as above; type: cell-based
Text: as §1

[3] = system: Staphylococcus aureus ATCC 6538 resistant to chloramphenicol; experiment: as above; type: cell-based
Text: as §1

[4] = system: Staphylococcus aureus ATCC 6538 resistant to erythromycin; experiment: as above; type: cell-based
Text: as §1

[5] = system: Staphylococcus aureus ATCC 6538 resistant to novobiocin; experiment: as above; type: cell-based
Text: as §1

[6] = system: Staphylococcus aureus ATCC 6538 resistant to oleandomycin; experiment: as above; type: cell-based
Text: as §1

[7] = system: Staphylococcus aureus ATCC 6538 resistant to penicillin; experiment: as above; type: cell-based
Text: as §1

[8] = system: Staphylococcus aureus ATCC 6538 resistant to streptomycin; experiment: as above; type: cell-based
Text: as §1

[9] = system: Staphylococcus aureus ATCC 6538 resistant to tetracycline; experiment: as above; type: cell-based
Text: as §1

[10] = system: Streptococcus hemolyticus C203; experiment: Minimal inhibitory concentration; type: cell-based
Text: (§2) The antibiotic substance of the invention is active against bacteria, and in particular against the following microorganisms at the indicated concentrations.

[11] = system: Staphylococcus aureus Tour; experiment: Minimal inhibitory concentration; type: cell-based
Text: as §2

[12] = system: Streptococcus mutans ATCC 25175; experiment: Minimal inhibitory concentration; type: cell-based
Text: as §2

[13] = system: Staphylococcus aureus ATCC 6538; experiment: Minimal inhibitory concentration; type: cell-based
Text: as §2

[14] = system: Mycoplasma gallisepticum H 21 C.Z.B.; experiment: Minimal inhibitory concentration; type: cell-based
Text: as §2

[15] = system: Diplococcus pneumoniae UC 41; experiment: Minimal inhibitory concentration; type: cell-based
Text: as §2

[16] = system: Mycobacterium tub. H37Rv ATCC 9360; experiment: Minimal inhibitory concentration; type: cell-based
Text: as §2

mice = experiment: Toxicity, LD50 i.p. in mice
[17] = system: Staphylococcus aureus ATCC 6538 resistant to streptothricin; experiment: Minimum inhibitory concentration, resistant strain (Table II); type: cell-based; details: S. aureus ATCC 6538 resistant to streptothricin
Text: as §1

[18] = system: Staphylococcus aureus ATCC 6538 resistant to neomycin; experiment: as above; type: cell-based; details: S. aureus ATCC 6538 resistant to neomycin
Text: as §1

[19] = type: physicochemical; details: methyl cellosolve
Text: An ionizable function is spectrophotometrically evidenced with pKa (in methyl cellosolve): 6.8

[20] = pH 7
[21] = Staphylococcus aureus, ATCC6538, read-out: M.I.C. of other antibiotics

Question: With `CC[C@H](C)[C@H](N)C1=N[C@H](C(=O)N[C@@H](CC(C)C)C(=O)N[C@H](CCC(=O)O)C(=O)N[C@H](C(=O)N[C@H]2CCCCNC(=O)[C@H](CC(N)=O)NC(=O)[C@@H](CC(=O)O)NC(=O)[C@H](Cc3cnc[nH]3)NC(=O)[C@@H](Cc3ccccc3)NC(=O)[C@H]([C@@H](C)CC)NC(=O)[C@@H](CCCN)NC2=O)[C@@H](C)CC)CS1` [bacitracin, reference compound] (HELM PEPTIDE1{[CC[C@H](C)[C@H](N)C1=N[C@H](C(=O)[*:2])CS1].L.[dE].I.K.[NCCC[C@@H](N[*:1])C(=O)[*:2]].I.[dF].H.[dD].N}$PEPTIDE1,PEPTIDE1,5:R3-11:R2$$$V2.0) as the molecule, how does the “M.I.C. of other antibiotics” value [1] read?
Answer: > 100 µg/mL

Question: Which MIC [2, 21] does the source give for `O=C(Cc1cccs1)N[C@@H]1C(=O)N2C(C(=O)[O-])=C(C[n+]3ccccc3)CS[C@H]12` [cephaloridine, reference compound] here?
Answer: > 100 µg/mL

Question: Which MIC [3, 21] does the source give for `O=C(N[C@H](CO)[C@H](O)c1ccc([N+](=O)[O-])cc1)C(Cl)Cl` [chloramphenicol, reference compound] here?
Answer: > 100 µg/mL

Question: Which MIC [4, 21] does the source give for `CC[C@H]1OC(=O)[C@H](C)[C@@H](O[C@H]2C[C@@](C)(OC)[C@@H](O)[C@H](C)O2)[C@H](C)[C@@H](O[C@@H]2O[C@H](C)C[C@H](N(C)C)[C@H]2O)[C@](C)(O)C[C@@H](C)C(=O)[C@H](C)[C@@H](O)[C@]1(C)O` [erythromycin, reference compound] here?
Answer: > 100 µg/mL

Question: For `CO[C@@H]1[C@@H](OC(N)=O)[C@@H](O)[C@H](Oc2ccc3c(O)c(NC(=O)c4ccc(O)c(CC=C(C)C)c4)c(=O)oc3c2C)OC1(C)C` [novobiocin, reference compound], which MIC [5, 21] is on record?
Answer: > 100 µg/mL

Question: For `CO[C@H]1C[C@H](O[C@H]2[C@H](C)[C@@H](O[C@@H]3O[C@H](C)C[C@H](N(C)C)[C@H]3O)[C@@H](C)C[C@@]3(CO3)C(=O)[C@H](C)[C@@H](O)[C@@H](C)[C@@H](C)OC(=O)[C@@H]2C)O[C@@H](C)[C@@H]1O` [oleandomycin, reference compound], which MIC [6, 21] is on record?
Answer: 50 µg/mL (≈ 72.7 µM)

Question: Which MIC [7, 21] does the source give for `CC1(C)S[C@@H]2[C@H](NC(=O)Cc3ccccc3)C(=O)N2[C@H]1C(=O)O` [penicillin, reference compound] here?
Answer: > 100 µg/mL

Question: With `[H]/N=C(/N)N[C@H]1[C@H](O)[C@@H](O)[C@H](O[C@@H]2O[C@@H](C)[C@](O)(C=O)[C@H]2O[C@@H]2O[C@@H](CO)[C@H](O)[C@@H](O)[C@@H]2NC)[C@@H](N/C(N)=N\[H])[C@@H]1O` [streptomycin, reference compound] as the molecule, how does the MIC [8, 21] read?
Answer: > 100 µg/mL

Question: With `CN(C)[C@@H]1C(O)=C(C(N)=O)C(=O)[C@@]2(O)C(O)=C3C(=O)c4c(O)cccc4[C@@](C)(O)[C@H]3C[C@@H]12` [tetracycline, reference compound] as the molecule, how does the MIC [9, 21] read?
Answer: > 100 µg/mL

Question: For lipiarmycin, which “MINIMAL INHIBITORY CONCENTRATION” value [10] is on record?
Answer: 10 µg/mL

Question: What about the “MINIMAL INHIBITORY CONCENTRATION” value ([11]; Staphylococcus aureus Tour with 10 percent bovine serum) of the same molecule?
Answer: 10 µg/mL

Question: And the “MINIMAL INHIBITORY CONCENTRATION” value ([11]; Staphylococcus aureus Tour, without serum)?
Answer: 2 µg/mL

Question: And the “MINIMAL INHIBITORY CONCENTRATION” value [12]?
Answer: 0.5 µg/mL

Question: What about the “MINIMAL INHIBITORY CONCENTRATION” value [13] of the same molecule?
Answer: 2 µg/mL

Question: And the “MINIMAL INHIBITORY CONCENTRATION” value [14]?
Answer: 50 µg/mL

Question: And the “MINIMAL INHIBITORY CONCENTRATION” value [15]?
Answer: 50 µg/mL

Question: What about the “MINIMAL INHIBITORY CONCENTRATION” value [16] of the same molecule?
Answer: 50 µg/mL

Question: And the LD50 (mice)?
Answer: about 500 mg./kg.

Question: And the M.I.C. of lipiarmycin [1]?
Answer: 5 µg/mL

Question: And the M.I.C. of lipiarmycin [17]?
Answer: 5 µg/mL

Question: And the M.I.C. of lipiarmycin ([8]; S. aureus ATCC 6538 resistant to streptomycin)?
Answer: 5 µg/mL

Question: And the M.I.C. of lipiarmycin ([7]; S. aureus ATCC 6538 resistant to penicillin)?
Answer: 2 µg/mL

Question: And the M.I.C. of lipiarmycin ([2]; S. aureus ATCC 6538 resistant to cephaloridine)?
Answer: 5 µg/mL

Question: And the M.I.C. of lipiarmycin [18]?
Answer: 2 µg/mL

Question: What about the M.I.C. of lipiarmycin ([4]; S. aureus ATCC 6538 resistant to erythromycin) of the same molecule?
Answer: 5 µg/mL

Question: And the M.I.C. of lipiarmycin ([5]; S. aureus ATCC 6538 resistant to novobiocin)?
Answer: 2 µg/mL

Question: And the M.I.C. of lipiarmycin ([9]; S. aureus ATCC 6538 resistant to tetracycline)?
Answer: 5 µg/mL

Question: And the M.I.C. of lipiarmycin ([3]; S. aureus ATCC 6538 resistant to chloramphenicol)?
Answer: 2 µg/mL

Question: What about the M.I.C. of lipiarmycin ([6]; S. aureus ATCC 6538 resistant to oleandomycin) of the same molecule?
Answer: 5 µg/mL

Question: What about the pKa [19] of the same molecule?
Answer: 6.8

Question: And the Solubility [20]?
Answer: Sparingly soluble to insoluble

Question: With neomycin [reference compound] as the molecule, how does the “M.I.C. of other antibiotics” value [18] read?
Answer: > 100 µg/mL

Question: Which “M.I.C. of other antibiotics” value [17] does the source give for streptothricin [reference compound] here?
Answer: > 100 µg/mL
